According to PMC9247573 (Frontiers in Microbiology, 2022):
Changes are numbered by the printed parent chain.

T1: EcPsuK (Escherichia coli, UniProt Z9FTQ0OEG4)
T1 construct: N-terminal His6-SUMO removed with Ulp1; host E. coli BL21(DE3)
T1 sequence (Z9FTQ0OEG4 1-313): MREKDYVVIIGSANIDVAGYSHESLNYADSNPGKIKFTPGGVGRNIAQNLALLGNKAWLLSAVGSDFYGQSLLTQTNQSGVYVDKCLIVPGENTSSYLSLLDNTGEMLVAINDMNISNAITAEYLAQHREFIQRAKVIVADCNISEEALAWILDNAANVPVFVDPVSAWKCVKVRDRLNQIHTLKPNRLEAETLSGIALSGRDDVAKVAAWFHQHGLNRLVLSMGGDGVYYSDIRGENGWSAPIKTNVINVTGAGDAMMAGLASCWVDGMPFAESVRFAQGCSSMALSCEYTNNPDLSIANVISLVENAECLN

B1: Escherichia coli pseudouridine kinase PsuK (enzyme, E. coli BL21 (DE3), UniProt P30235 1-313, looked up)
chain: T1 sequence (Z9FTQ0OEG4 1-313) with R129G, D203E, R235S, N238S
notes: E. coli pseudouridine kinase PsuK (YeiC), amplified from the E. coli BL21 (DE3) genome, Uniprot ID A0A140N873, aa 1-313 (313 residues, calculated 33.6 kDa); modelled from Arg2 to Asn308 in the apo structure; Cloned by BamHI and XhoI into a modified pET-28a with an Ulp1 cleavage site; also called EcPsuK; YeiC; source: E. coli BL21 (DE3), purified (Ni-NTA, Ulp1 cleavage, second Ni-NTA, Superdex …)

Legend:
EcPsuK = biological target: T1, EcPsuK; experiment: X-ray crystallography, […] Å; assay type: binding; details: co-crystallised with ADP and Ψ, soaked with 1 mM Ψ and 4 mM ADP, MgCl2, pH 7.0, NaCl-purified protein; ADP not seen; nucleoside site; turnover also measured with ATP
[1] = biological target: the molecule itself; experiment: SEC; HiLoad 16/60 Superdex 200-pg, 10 mM Tris-HCl pH 8.0, 100 mM NaCl or 100 mM KCl; molecular weight of the purified protein against the calculated monomer

| Molecule | X-ray crystallography, 2.30 Å (EcPsuK) | stoichiometry N [1] |
| --- | --- | --- |
| O=c1[nH]cc([C@@H]2O[C@H](CO)[C@@H](O)[C@H]2O)c(=O)[nH]1 [pseudouridine] | we determined the crystal structure of EcPsuK complexed with pseudouridine through co-crystallization |  |
| B1 |  | 2 |
